From ChEMBL document CHEMBL1154544, “Antitumour polyether macrolides: four new halichondrins from the New Zealand deep-water marine sponge Lissodendoryx sp” (Bioorg Med Chem, 2009)
Values after ≈ are worked out from the molar mass of the structure shown.

test system: P388; test: Cytotoxicity against mouse P388 cells; assay type: functional, cell-based

Point of comparison: `C=C1C[C@@H]2CC[C@@]34C[C@H]5O[C@H]6[C@@H](O3)[C@H]3O[C@H](CC[C@@H]3O[C@H]6[C@H]5O4)CC(=O)O[C@@H]3[C@@H](C)[C@@H]4O[C@@H]5C[C@]6(C[C@@H]7O[C@]8(C[C@H](C)[C@@H]9O[C@@H]%10CC(C(O)CCl)O[C@@H]%10C[C@@H]9O8)C[C@H](C)[C@@H]7O6)O[C@@H]5C[C@@H]4O[C@H]3C[C@H]3O[C@@H](CC[C@@H]1O2)C[C@@H](C)C3=C` (some centres not stated), IC50 2 ng/mL (≈ 1.75 nM). Against it:
- C=C1C[C@@H]2CC[C@@]34C[C@H]5O[C@H]6[C@@H](O3)[C@H]3O[C@H](CC[C@@H]3O[C@H]6[C@H]5O4)CC(=O)O[C@@H]3[C@@H](C)[C@@H]4O[C@@H]5C[C@]6(C[C@@H]7O[C@]8(C[C@H](C)[C@@H]9O[C@@H]%10CC(=O)O[C@@H]%10C[C@@H]9O8)C[C@H](C)[C@@H]7O6)O[C@@H]5C[C@@H]4O[C@H]3C[C@H]3O[C@@H](CC[C@@H]1O2)C[C@@H](C)C3=C — 1.8-fold lower, 1.1 ng/mL (≈ 1.02 nM)
- C=C1C[C@@H]2CC[C@@]34C[C@H]5O[C@H]6[C@@H](O3)[C@H]3O[C@H](CC[C@@H]3O[C@H]6[C@H]5O4)CC(=O)O[C@@H]3[C@@H](C)[C@@H]4O[C@@H]5C[C@]6(C[C@@H]7O[C@]8(C[C@H](C)[C@@H]9OC(=O)C[C@@H]9O8)C[C@H](C)[C@@H]7O6)O[C@@H]5C[C@@H]4O[C@H]3C[C@H]3O[C@@H](CC[C@@H]1O2)C[C@@H](C)C3=C — 1.8-fold lower, 1.1 ng/mL (≈ 1.08 nM)
- C=C1C[C@@H]2CC[C@@]34C[C@H]5O[C@H]6[C@@H](O3)[C@H]3O[C@H](CC[C@@H]3O[C@H]6[C@H]5O4)CC(=O)O[C@@H]3[C@@H](C)[C@@H]4O[C@@H]5C[C@]6(C[C@@H]7O[C@]8(C[C@H](C)[C@@H]9O[C@H](CC(C)=O)[C@H](O)C[C@@H]9O8)C[C@H](C)[C@@H]7O6)O[C@@H]5C[C@@H]4O[C@H]3C[C@H]3O[C@@H](CC[C@@H]1O2)C[C@@H](C)C3=C — 2.6-fold lower, 0.76 ng/mL (≈ 0.695 nM)
- C=C1C[C@@H]2CC[C@@]34C[C@H]5O[C@H]6[C@@H](O3)[C@H]3O[C@H](CC[C@@H]3O[C@H]6[C@H]5O4)CC(=O)O[C@@H]3[C@@H](C)[C@@H]4O[C@@H]5C[C@]6(C[C@@H]7O[C@]8(C[C@H](C)[C@@H]9O[C@H]([C@@H](O)C[C@@H](O)CO)C[C@@H]9O8)C[C@H](C)[C@@H]7O6)O[C@@H]5C[C@@H]4O[C@H]3C[C@H]3O[C@@H](CC[C@@H]1O2)C[C@@H](C)C3=C [HALICHONDRIN B] — 2.6-fold lower, 0.78 ng/mL (≈ 0.702 nM)
- C=C1C[C@@H]2CC[C@@]34C[C@H]5O[C@H]6[C@@H](O3)[C@H]3O[C@H](CC[C@@H]3O[C@H]6[C@H]5O4)CC(=O)O[C@@H]3[C@@H](C)[C@@H]4O[C@@H]5C[C@]6(C[C@@H]7O[C@]8(C[C@H](C)[C@@H]9O[C@@H]%10CC(C(O)CO)O[C@@H]%10C[C@@H]9O8)C[C@H](C)[C@@H]7O6)O[C@@H]5C[C@@H]4O[C@H]3C[C@H]3O[C@@H](CC[C@@H]1O2)C[C@@H](C)C3=C (some centres not stated) [HOMOHALICHONDRIN B] — 9.1-fold lower, 0.22 ng/mL (≈ 0.196 nM)
- C=C1C[C@@H]2CC[C@@]34C[C@H]5O[C@H]6[C@@H](O3)[C@H]3O[C@H](CC[C@@H]3O[C@H]6[C@H]5O4)CC(=O)O[C@@H]3[C@@H](C)[C@@H]4O[C@@H]5C[C@]6(C[C@@H]7O[C@]8(C[C@H](C)[C@@H]9O[C@H](CC(=O)CCO)[C@H](O)C[C@@H]9O8)C[C@H](C)[C@@H]7O6)O[C@@H]5C[C@@H]4O[C@H]3C[C@H]3O[C@@H](CC[C@@H]1O2)C[C@@H](C)C3=C [ISOHOMOHALICHONDRIN B] — 11-fold lower, 0.18 ng/mL (≈ 0.16 nM)
